Measurements as given in patent US20210315893A1 (Galapagos NV, priority 2017, published 2021).

Columns and labels:
[1] = molecular target: T1, human GPCR sphingosine 1-phosphate receptor 2 (Homo sapiens, UniProt O95136); assay: S1PR2 antagonist Ca2+ flux assay; assay type: cell-based; conditions: antagonist mode, CHO-S1PR2 cells, S1P at EC80, Ca2+ fluorescence; read-out: S1P2 EC50 (nM), S1P2 antagonist EC50
T1 construct: host or cells: CHO
Outline: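 CHO cells stably expressing human S1PR2, serum-starved 1 h, Fluo8-loaded; compound-evoked Ca2+ fluorescence read 3 min (agonist mode), then after 15 min S1P at EC80 added and read 3 min (antagonist mode). Max/baseline fluorescence ratios normalised to vehicle and S1P EC100 or EC50 controls; EC50 derived.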

[2] = tested on: HFL-1 cells; assay: IL-8 production assay (S1P induced IL-8); assay type: cell-based; conditions: Homo sapiens, HFL1; S1P (1 μM) induced IL-8 in HFL-1 cells, starvation medium without HSA; read-out: IL8 EC50
Outline: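 HFL-1 human fetal lung fibroblasts were starved in F12K/1% FBS, then given compound for 1 h (10-point, 1/3 dilution, 30 μM top, 0.3% DMSO final). S1P was added at 1 μM final for 16–24 h at 37 °C, and secreted IL-8 in supernatant quantified by ELISA.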

[3] = tested on: HFL-1 cells; assay: IL8 assay in the presence of Human Serum Albumin; conditions: HFL1, read-out: HSA IL8 EC50
Protocol: To evaluate the influence of plasma protein binding of S1P as well as compound, the S1P induced IL-8 levelswereevaluatedin presence of Human Serum Albumin (HSA, equivalent to 40% human serum).
Human Fetal Lung cells (HFL-1) are seeded in 96 well plates in growth medium (F12K+10% heat inactivated FBS+1% Pen/strep). […] On day three, compounds are added (10 point serial dilution, 30 μM highest concentration, 1/3 dilution, 0.3% DMSO final) and plates are incubated for 1 h at 37° C., 5% CO2. Subsequently S1P at 5 μM final concentration is added and plates are incubated for 16 to 24 h at 37° C., 5% COafter which the supernatant was collected. IL-8 levels in the supernatant are determined with the IL-8 ELISA of R&D systems.

[4] = molecular target: T2, human GPCR sphingosine 1-phosphate receptor 1 (Homo sapiens, UniProt P21453); assay: S1PR1 selectivity Ca2+ flux assay (antagonist readout); assay type: cell-based; conditions: antagonist readout, CHO cells overexpressing human S1PR1 and Gq, S1P at EC80 (6 nM); read-out: S1P1 EC50 (nM), S1P1 antagonist EC50
T2 construct: host or cells: CHO
T2 sequence (P21453 whole entry): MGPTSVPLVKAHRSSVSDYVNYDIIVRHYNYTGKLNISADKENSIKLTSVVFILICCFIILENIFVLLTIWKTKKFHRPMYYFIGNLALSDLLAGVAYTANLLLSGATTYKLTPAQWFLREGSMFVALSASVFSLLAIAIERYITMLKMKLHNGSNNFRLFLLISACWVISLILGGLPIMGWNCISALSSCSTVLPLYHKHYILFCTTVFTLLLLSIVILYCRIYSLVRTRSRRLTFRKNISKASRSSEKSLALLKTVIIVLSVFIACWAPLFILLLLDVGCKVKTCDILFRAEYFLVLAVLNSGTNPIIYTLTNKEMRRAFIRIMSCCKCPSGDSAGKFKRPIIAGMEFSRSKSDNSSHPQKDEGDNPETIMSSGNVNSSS
Protocol: (§1) 50 μL of Chinese hamster ovary (CHO) cells stably overexpressing human S1PR1 or S1PR5 are seeded in 384 well sterile microplates (7,500 cells/well or 10,000 cells/well respectively) and are incubated overnight at 37° C. under 5% CO2. Cells are subsequently washed twice with 25 μL/well of starvation medium (F-12 Ham's medium containing 0.1% fatty acid free bovine serum albumin (FAF BSA)). After one h starvation at 37° C., 5% CO2, cells are loaded with 25 μL of Fluo 8 dye diluted in Hank's balanced salt solution (HBSS) with 20 mM Hepes complemented with 5 mM of probenecid following the recommendations of the manufacturer (one h at 37° C., 5% CO2). Dilution series of compounds are prepared in HBSS buffer with 20 mM Hepes and 0.1% BSA (FAF). 10 μL of diluted compound is added to the cells using the FDSS/pCELL and intracellular calcium changes are measured immediately by recording fluorescence during 3 min (agonist readout). The ratio of maximal signal over background before compound injection is used to determine compound response.
After an incubation of 15 min at 37° C., following the agonist readout, the plates are transferred to the FDSS/pCELL reader. […] The ratio of maximal signal over background before S1P injection was used to determine the inhibitory effect ofthe compound.
(§2) Raw data obtained in each experiment (ratio of maximal signal over background for calcium mobilization assays) were normalized in percentage of activation (agonist mode) or inhibition (antagonist mode) using positive and negative experiment controls. Each individual plate quality was assessed by evaluation of Z′ factor calculated with raw data using the following equation
(§3) Y=bottom+(top−bottom)/(1+(10^(Log IC50−X)*Hillslope)) where X is the logarithm of the concentration of the compound

[5] = molecular target: T3, S1PR2 (Homo sapiens, UniProt O95136); assay: S1PR2 binding assay (competition with radioactively labeled S1P, SpA); conditions: membranes from stable cell line over expressing S1PR2, SpA beads; read-out: S1P2 EC50 (nM), S1PR2 binding EC50
T3 construct: expressed in transfected cells
T3 sequence (O95136 whole entry): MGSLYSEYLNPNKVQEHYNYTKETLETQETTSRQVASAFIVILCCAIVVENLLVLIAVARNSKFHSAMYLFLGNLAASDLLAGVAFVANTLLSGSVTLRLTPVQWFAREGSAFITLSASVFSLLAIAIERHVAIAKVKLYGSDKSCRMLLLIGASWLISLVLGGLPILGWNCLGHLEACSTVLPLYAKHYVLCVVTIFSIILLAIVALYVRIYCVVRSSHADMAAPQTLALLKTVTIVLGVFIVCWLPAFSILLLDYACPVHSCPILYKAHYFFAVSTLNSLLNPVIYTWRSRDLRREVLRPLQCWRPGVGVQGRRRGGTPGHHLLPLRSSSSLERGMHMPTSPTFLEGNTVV
Outline: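 Competition with [3H]S1P for membranes from a stable S1PR2-overexpressing cell line, 20 μg/well, captured on PVT-WGA SPA beads, in 20 mM Tris pH 7.5, 10 mM MgCl2, 100 mM NaCl, 0.4% fatty-acid-free BSA, 1 mM Na3VO4. 2 h at room temperature, then centrifugation and scintillation counting.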

[6] = molecular target: T4, human GPCR sphingosine 1-phosphate receptor 5 (Homo sapiens, UniProt Q9H228); assay: S1PR5 selectivity Ca2+ flux assay (antagonist readout); assay type: cell-based; conditions: CHO cells overexpressing human S1PR5 and Gq, agonist at EC80 (20 nM), read-out: S1P5 EC50 (nM), S1P5 antagonist EC50
T4 construct: host or cells: CHO
T4 sequence (Q9H228 whole entry): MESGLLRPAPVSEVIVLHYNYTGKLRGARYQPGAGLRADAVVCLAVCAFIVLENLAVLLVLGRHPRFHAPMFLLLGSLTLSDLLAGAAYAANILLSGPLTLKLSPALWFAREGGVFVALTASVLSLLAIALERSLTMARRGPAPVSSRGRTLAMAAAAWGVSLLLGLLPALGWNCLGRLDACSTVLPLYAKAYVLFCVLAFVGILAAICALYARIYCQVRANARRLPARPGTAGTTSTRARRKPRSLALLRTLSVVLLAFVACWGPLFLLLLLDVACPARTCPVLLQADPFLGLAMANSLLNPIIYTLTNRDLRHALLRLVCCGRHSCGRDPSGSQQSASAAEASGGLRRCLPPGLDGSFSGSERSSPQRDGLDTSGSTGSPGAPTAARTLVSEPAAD
Text: To evaluate the selectivity of the compounds for S1PR2 over S1PR1 and S1PR5, asimilar assay set upas described above for theS1PR2 calcium flux assays waspeformed: CHO cells stably overexpressing human GPCR sphingosine 1-phosphate receptor 1 and Gq protein (Euroscreen, FAST-0197A) or overexpressing human GPCR sphingosine 1-phosphate receptorS5 and Gq protein were used (Perkin Elmer, ES-593-A). In case of the S1PR5 assay triggering was done with an SPR5 specific agonist instead of with S1P (Hobson et al., 2015).
as §1
After an incubation of 15 min at 37° C., following the agonist readout, the plates are transferred to the FDSS/pCELL reader. Cells are stimulated with 10 μL of EC80 concentration of S1P (6 nM for S1P1 and 20 nM for S1P5) and intracellular calcium changes are measured immediately by recording fluorescence during three min (antagonist readout). The ratio of maximal signal over background before S1P injection was used to determine the inhibitory effect ofthe compound.
as §2, §3

T1 sequence (O95136 whole entry): as the sequence (O95136 whole entry) above

Compound	EC50 [1] [nM]	EC50 [2] [nM]	EC50 [3] [nM]	EC50 [4] [nM]	EC50 [5] [nM]	EC50 [6] [nM]
CCOc1cc2cn(Cc3nn(CC(=O)O)c(=O)c4ccccc34)nc2cc1Br [Compound 137, 2-[4-[(6-bromo-5-ethoxy-indazol-2-yl)methyl]-1-oxo-phthalazin-2-yl]acetic acid]	21	105	3180	≥ 19900	59.4	
O=C(Cn1nc(Cn2cc3cc(OCC4CC4)c(Cl)cc3n2)c2ccccc2c1=O)N1CCOCC1 [Compound 148, 4-[[6-chloro-5-(cyclopropylmethoxy)indazol-2-yl]methyl]-2-(2-morpholino-2-oxo-ethyl)phthalazin-1-one]	41.5	68.9	785	≥ 19900	32.1	
O=C(Cn1nc(Cc2nc3cc(OC(F)(F)F)c(Cl)cc3[nH]2)c2ccccc2c1=O)N1CCOCC1 [Compound 142, 4-[[6-chloro-5-(trifluoromethoxy)-1H-benzimidazol-2-yl]methyl]-2-(2-morpholino-2-oxo-ethyl)phthalazin-1-one]	30.1	191	952	≥ 19900	103	
O=C(Cn1nc(Cc2nc3cc(Cl)c(OCC4CC4)cc3[nH]2)c2ccccc2c1=O)NC1CCCC1 [Compound 150, 2-[4-[[5-chloro-6-(cyclopropylmethoxy)-1H-benzimidazol-2-yl]methyl]-1-oxo-phthalazin-2-yl]-N-cyclopentyl-acetamide]	13.7	6.14	41.4		15.6	19800
O=C(O)Cc1nn(Cc2cn3cc(OCC4CC4)c(C(F)(F)F)cc3n2)c2ccccc2c1=O [Compound 99, 2-[1-[[6-(cyclopropylmethoxy)-7-(trifluoromethyl)imidazo[1,2-a]pyridin-2-yl]methyl]-4-oxo-cinnolin-3-yl]acetic acid]	3.56		322		44.9	6610
O=C(O)Cn1nc(Cn2cc3cc(OCC(F)(F)F)c(Cl)cc3n2)c2ccccc2c1=O [Compound 252, 2-[4-[[6-chloro-5-(2,2,2-trifluoroethoxy)indazol-2-yl]methyl]-1-oxo-phthalazin-2-yl]acetic acid]	62.6	145	16500	≥ 19900	239	
O=C(O)Cn1nc(Cn2cc3cc(OCC(F)F)c(Cl)cc3n2)c2ccccc2c1=O [Compound 253, 2-[4-[[6-chloro-5-(2,2-difluoroethoxy)indazol-2-yl)methyl]-1-oxo-phthalazin-2-yl]acetic acid]	184	290	4130	≥ 19900	182	
COc1cc2nc(Cc3nn(CC(=O)O)c(=O)c4ccccc34)[nH]c2cc1Cl [Compound 136, 2-[4-[(6-chloro-5-methoxy-1H-benzimidazol-2-yl)methyl]-1-oxo-phthalazin-2-yl]acetic acid]		26		≥ 19900		
CN1CCC(n2nc(Cc3nc4cc(OCC(F)F)c(C#N)cc4[nH]3)c3ccccc3c2=O)C1 (centres unmarked) [Compound 72, 6-(2,2-difluoroethoxy)-2-[[3-(1-methylpyrrolidin-3-yl)-4-oxo-phthalazin-1-yl]methyl]-3H-benzimidazole-5-carbonitrile]		5180	1950	≥ 19800	3090	
O=C(O)Cn1nc(Cc2nc3cc(Cl)c(OC(F)(F)F)cc3[nH]2)c2c(c1=O)CCCC2 [Compound 113, 2-[4-[[5-chloro-6-(trifluoromethoxy)-1H-benzimidazol-2-yl]methyl]-1-oxo-5,6,7,8-tetrahydrophthalazin-2-yl]acetic acid]	23.7	418	917	≥ 19900	154	
O=C(O)Cn1nc(Cc2nc3cc(OC(F)(F)F)c(Cl)cc3[nH]2)c2ccccc2c1=O [Compound 112, 2-[4-[[6-chloro-5-(trifluoromethoxy)-1H-benzimidazol-2-yl]methyl]-1-oxo-phthalazin-2-yl]acetic acid]		541	1640	≥ 19900		
CCOc1cc2cn(Cc3nn(CC(=O)O)c(=O)c4ccccc34)nc2cc1Cl [Compound 251, 2-[4-[(6-chloro-5-ethoxy-indazol-2-yl)methyl]-1-oxo-phthalazin-2-yl]acetic acid]	179	111	3460	≥ 19900	113	
O=C(Cn1nc(Cc2nc3cc(Cl)c(OC(F)(F)F)cc3[nH]2)c2c(c1=O)CCCC2)N1CCOCC1 [Compound 145, 4-[[5-chloro-6-(trifluoromethoxy)-1H-benzimidazol-2-yl]methyl]-2-(2-morpholino-2-oxo-ethyl)-5,6,7,8-tetrahydrophthalazin-1-one]	42.6	89.3	330	≥ 19900	80.2	
O=C(Cn1nc(Cc2nc3cc(OC(F)(F)F)c(Cl)cc3[nH]2)c2ccccc2c1=O)N[C@H]1CCC[C@H]1O [Compound 140, 2-[4-[[6-chloro-5-(trifluoromethoxy)-1H-benzimidazol-2-yl]methyl]-1-oxo-phthalazin-2-yl]-N-[(1S,2R)-2-hydroxycyclopentyl]acetamide]	13	114	1110	≥ 19900	29.8	
O=C(Cn1nc(Cc2nc3cc(OC(F)(F)F)c(Cl)cc3[nH]2)c2ccccc2c1=O)NC1CCS(=O)(=O)CC1 [Compound 141, 2-[4-[[6-chloro-5-(trifluoromethoxy)-1H-benzimidazol-2-yl]methyl]-1-oxo-phthalazin-2-yl]-N-(1,1-dioxothian-4-yl)acetamide]	21.1	130		≥ 19900	70.6	
O=C(O)C1CCC1n1nc(Cn2cc3cc(OCC4CC4)c(Cl)cc3n2)c2ccccc2c1=O (centres unmarked) [Compound 91, 2-[4-[[6-chloro-5-(cyclopropylmethoxy)indazol-2-yl]methyl]-1-oxo-phthalazin-2-yl]cyclobutanecarboxylic acid]	22.2	60.7	5710	≥ 19800		
CC(C(=O)O)n1nc(Cn2cc3cc(OCC4CC4)c(Cl)cc3n2)c2ccccc2c1=O (centres unmarked) [compound 3, 2-[4-[[6-chloro-5-(cyclopropyl-methoxy)indazol-2-yl]methyl]-1-oxo-phthalazin-2-yl]propanoic acid]		3.99	217			19800
